Experimental data as given in the supplement of paper PMC10307832.

Legend:
Experiment in all cases: relative viability (nuclei count vs DMSO), 5 days (fraction); higher = more cells survive
NCI-H460 = test system: NCI-H460
Summary of the method: (§1)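 Medians of duplicate plates are given as relative viability. That measure is the nuclei count in treated wells divided by the count in vehicle wells. Counts were taken on 4× images of lung cancer cell lines in 1536-well plates, 5 days after pin-tool dosing the day after seeding with one drug alone or a fixed anchor-drug dose plus five library-drug doses (not always all listed) in √10 steps.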

NCI-H1915 = test system: NCI-H1915
Summary of the method: as §1

NCI-H1792 = test system: NCI-H1792
Summary of the method: as §1

SW 1573 = test system: SW 1573
Summary of the method: as §1

HOP-62 = test system: HOP-62
Summary of the method: as §1

HCC-827 = test system: HCC-827
Summary of the method: as §1

LCLC-103H = test system: LCLC-103H
Summary of the method: as §1

NCI-H727 = test system: NCI-H727
Summary of the method: as §1

NCI-H1437 = test system: NCI-H1437
Summary of the method: as §1

HCC-366 = test system: HCC-366
Summary of the method: as §1

NCI-H1975 = test system: NCI-H1975
Summary of the method: as §1

NCI-H522 = test system: NCI-H522
Summary of the method: as §1

HARA = test system: HARA
Summary of the method: as §1

CAL-12T = test system: CAL-12T
Summary of the method: as §1

COR-L 105 = test system: COR-L 105
Summary of the method: as §1

NCI-H1395 = test system: NCI-H1395
Summary of the method: as §1

NCI-H2009 = test system: NCI-H2009
Summary of the method: as §1

SK-LU-1 = test system: SK-LU-1
Summary of the method: as §1

A-427 = test system: A-427
Summary of the method: as §1

EMC-BAC-2 = test system: EMC-BAC-2
Summary of the method: as §1

NCI-H1755 = test system: NCI-H1755
Summary of the method: as §1

NCI-H2228 = test system: NCI-H2228
Summary of the method: as §1

NCI-H1355 = test system: NCI-H1355
Summary of the method: as §1

NCI-H23 = test system: NCI-H23
Summary of the method: as §1

## Clc1ccc(Nc2nnc(Cc3ccncc3)c3ccccc23)cc1 [Vatalanib] + CC(=O)c1c(C)c2cnc(Nc3ccc(N4CCNCC4)cn3)nc2n(C2CCCC2)c1=O [Palbociclib] (partner 0.5 µM)
NCI-H460; first compound 0.04 µM
  relative viability: 0.152
NCI-H460; first compound 0.1265 µM
  relative viability: 0.169
NCI-H460; first compound 0.4 µM
  relative viability: 0.211
NCI-H460; first compound 1.265 µM
  relative viability: 0.148
NCI-H460; first compound 4 µM
  relative viability: 0.0922
NCI-H1915; first compound 0.04 µM
  relative viability: 0.533
NCI-H1915; first compound 0.1265 µM
  relative viability: 0.526
NCI-H1915; first compound 0.4 µM
  relative viability: 0.516
NCI-H1915; first compound 1.265 µM
  relative viability: 0.511
NCI-H1915; first compound 4 µM
  relative viability: 0.511
NCI-H1792; first compound 0.04 µM
  relative viability: 0.613
NCI-H1792; first compound 0.1265 µM
  relative viability: 0.543
NCI-H1792; first compound 0.4 µM
  relative viability: 0.637
NCI-H1792; first compound 1.265 µM
  relative viability: 0.738
NCI-H1792; first compound 4 µM
  relative viability: 0.687
SW 1573; first compound 0.1265 µM
  relative viability: 0.403
SW 1573; first compound 0.4 µM
  relative viability: 0.461
SW 1573; first compound 1.265 µM
  relative viability: 0.361
SW 1573; first compound 4 µM
  relative viability: 0.368
HOP-62; first compound 0.04 µM
  relative viability: 0.459
HOP-62; first compound 0.1265 µM
  relative viability: 0.436
HOP-62; first compound 0.4 µM
  relative viability: 0.417
HOP-62; first compound 1.265 µM
  relative viability: 0.45
HOP-62; first compound 4 µM
  relative viability: 0.481
HCC-827; first compound 0.04 µM
  relative viability: 0.484
HCC-827; first compound 0.1265 µM
  relative viability: 0.406
HCC-827; first compound 1.265 µM
  relative viability: 0.49
HCC-827; first compound 4 µM
  relative viability: 0.475
LCLC-103H; first compound 0.04 µM
  relative viability: 0.506
LCLC-103H; first compound 0.1265 µM
  relative viability: 0.452
LCLC-103H; first compound 0.4 µM
  relative viability: 0.503
LCLC-103H; first compound 1.265 µM
  relative viability: 0.443
LCLC-103H; first compound 4 µM
  relative viability: 0.513
NCI-H727; first compound 0.1265 µM
  relative viability: 0.611
NCI-H727; first compound 0.4 µM
  relative viability: 0.683
NCI-H727; first compound 1.265 µM
  relative viability: 0.66
NCI-H727; first compound 4 µM
  relative viability: 0.638
NCI-H1437; first compound 0.04 µM
  relative viability: 0.309
NCI-H1437; first compound 0.1265 µM
  relative viability: 0.318
NCI-H1437; first compound 0.4 µM
  relative viability: 0.356
NCI-H1437; first compound 1.265 µM
  relative viability: 0.294
NCI-H1437; first compound 4 µM
  relative viability: 0.279
HCC-366; first compound 0.04 µM
  relative viability: 0.462
HCC-366; first compound 0.1265 µM
  relative viability: 0.348
HCC-366; first compound 0.4 µM
  relative viability: 0.457
HCC-366; first compound 1.265 µM
  relative viability: 0.391
HCC-366; first compound 4 µM
  relative viability: 0.355
NCI-H1975; first compound 0.04 µM
  relative viability: 0.651
NCI-H1975; first compound 0.1265 µM
  relative viability: 0.5
NCI-H1975; first compound 0.4 µM
  relative viability: 0.768
NCI-H1975; first compound 1.265 µM
  relative viability: 0.528
NCI-H1975; first compound 4 µM
  relative viability: 0.489
NCI-H522; first compound 0.04 µM
  relative viability: 0.872
NCI-H522; first compound 0.1265 µM
  relative viability: 1.06
NCI-H522; first compound 0.4 µM
  relative viability: 1.18
NCI-H522; first compound 1.265 µM
  relative viability: 1.06
NCI-H522; first compound 4 µM
  relative viability: 0.993
HARA; first compound 0.04 µM
  relative viability: 0.227
HARA; first compound 0.1265 µM
  relative viability: 0.361
HARA; first compound 0.4 µM
  relative viability: 0.224
HARA; first compound 1.265 µM
  relative viability: 0.244
HARA; first compound 4 µM
  relative viability: 0.238
CAL-12T; first compound 0.04 µM
  relative viability: 0.409
CAL-12T; first compound 0.1265 µM
  relative viability: 0.312
CAL-12T; first compound 0.4 µM
  relative viability: 0.384
CAL-12T; first compound 1.265 µM
  relative viability: 0.345
CAL-12T; first compound 4 µM
  relative viability: 0.425
COR-L 105; first compound 0.04 µM
  relative viability: 0.404
COR-L 105; first compound 0.1265 µM
  relative viability: 0.369
COR-L 105; first compound 0.4 µM
  relative viability: 0.402
COR-L 105; first compound 1.265 µM
  relative viability: 0.441
COR-L 105; first compound 4 µM
  relative viability: 0.396
NCI-H1395; first compound 0.04 µM
  relative viability: 0.654
NCI-H1395; first compound 0.1265 µM
  relative viability: 0.622
NCI-H1395; first compound 0.4 µM
  relative viability: 0.631
NCI-H1395; first compound 4 µM
  relative viability: 0.568
NCI-H2009; first compound 0.04 µM
  relative viability: 0.245
NCI-H2009; first compound 0.1265 µM
  relative viability: 0.203
NCI-H2009; first compound 0.4 µM
  relative viability: 0.249
NCI-H2009; first compound 1.265 µM
  relative viability: 0.24
NCI-H2009; first compound 4 µM
  relative viability: 0.213
SK-LU-1; first compound 0.04 µM
  relative viability: 0.398
SK-LU-1; first compound 0.1265 µM
  relative viability: 0.415
SK-LU-1; first compound 0.4 µM
  relative viability: 0.499
SK-LU-1; first compound 1.265 µM
  relative viability: 0.415
SK-LU-1; first compound 4 µM
  relative viability: 0.385
A-427; first compound 0.04 µM
  relative viability: 0.568
A-427; first compound 0.1265 µM
  relative viability: 0.482
A-427; first compound 0.4 µM
  relative viability: 0.546
A-427; first compound 4 µM
  relative viability: 0.508
EMC-BAC-2; first compound 0.04 µM
  relative viability: 0.545
EMC-BAC-2; first compound 0.1265 µM
  relative viability: 0.524
EMC-BAC-2; first compound 0.4 µM
  relative viability: 0.563
EMC-BAC-2; first compound 4 µM
  relative viability: 0.512
NCI-H1755; first compound 0.04 µM
  relative viability: 0.473
NCI-H1755; first compound 0.1265 µM
  relative viability: 0.474
NCI-H1755; first compound 0.4 µM
  relative viability: 0.457
NCI-H1755; first compound 1.265 µM
  relative viability: 0.445
NCI-H1755; first compound 4 µM
  relative viability: 0.425
NCI-H2228; first compound 0.04 µM
  relative viability: 0.795
NCI-H2228; first compound 0.1265 µM
  relative viability: 0.838
NCI-H2228; first compound 0.4 µM
  relative viability: 0.806
NCI-H2228; first compound 1.265 µM
  relative viability: 0.765
NCI-H2228; first compound 4 µM
  relative viability: 0.612
NCI-H1355; first compound 0.04 µM
  relative viability: 0.434
NCI-H1355; first compound 0.1265 µM
  relative viability: 0.428
NCI-H1355; first compound 0.4 µM
  relative viability: 0.424
NCI-H1355; first compound 1.265 µM
  relative viability: 0.35
NCI-H1355; first compound 4 µM
  relative viability: 0.388
NCI-H23; first compound 0.04 µM
  relative viability: 0.469
NCI-H23; first compound 0.1265 µM
  relative viability: 0.435
NCI-H23; first compound 0.4 µM
  relative viability: 0.533
NCI-H23; first compound 1.265 µM
  relative viability: 0.473
NCI-H23; first compound 4 µM
  relative viability: 0.468
